Measurements: PMC3684613 (PLoS ONE, 2013)
pEC50: −log10 of the molar value. Read-outs that look alike come from different tables or passages of the source.

Experiments:
P. falciparum 3D7 [1] = assay: DAPI stain fluorescent high content imaging assay, P. falciparum 3D7 (confirmatory screen, Avery); details: Plasmodium falciparum; for pEC50: 3D7, read-out: EC50_nM; for inhibition of growth at 5 µM: 3D7, read-out: percent_inh @ 5 uM
P. falciparum 3D7 [2] = tested on: P. falciparum 3D7; design: method as in ChEMBL-NTD; details: ref ChEMBL-NTD, cited from earlier work
[3] = values follow the order of the source (GNF; GSK; StJude)
[4] = original screening data, source (GSK, GNF, StJude), several values separated by ';' in order of sources

Structure (SMILES)	pEC50 (P. falciparum 3D7 [1])	inhibition of growth at 5 µM (P. falciparum 3D7 [1]) [%]	further results
Cc1cccc(N2C(=O)C3C(C2=O)C2(c4ccccc4)C(=O)C3(c3ccccc3)C(c3ccc4c(c3)OCO4)=C2c2ccc3c(c2)OCO3)c1 (centres unmarked) [MMV007228]	6.52	94	pEC50 (P. falciparum 3D7 [2]; [3]): 5.97
COc1cc2c(cc1OC)C1=NNC(=O)C1=NC(C)(C)C2 [MMV084940]	5.98	–	pEC50 (P. falciparum 3D7 [2]; [4]): 5.80
O=c1nc(C=Cc2ccc(Br)cc2)oc2ccccc12 [MMV666599]	–	94	pEC50 (P. falciparum 3D7 [2]; source GSK (TCMDC ids)): 5.98
CCOc1cc(Br)c(C(C)NC(=O)c2cccc(OC)c2)cc1OCC (centres unmarked) [MMV665796]	5.84	96	pEC50 (P. falciparum 3D7 [2]; source GSK): 6.77
O=C(NCc1ccco1)C1CCN(S(=O)(=O)c2ccc(Br)cc2)CC1 [MMV007430]	6.03	93	pEC50 (P. falciparum 3D7 [2]; [4]): 6.44
CCN(Cc1ccccc1)C1CCN(Cc2cc(Br)ccc2O)CC1 [MMV019127]	6.20	97	pEC50 (P. falciparum 3D7 [2]; [4]): 6.08
Cc1ccc(Cn2c(N3CCC(C(=O)NCc4cccs4)CC3)nc3ccccc32)cc1 [MMV007564]	6.02	73	pEC50 (P. falciparum 3D7 [2]; source GNF): 6.28; pEC50 (P. falciparum 3D7 [2]; source GSK): 6.13
Cn1c(=O)n(C)c2cc(CNCCNc3ccnc4cc(Cl)ccc34)ccc21 [MMV665875]	6.26	90	pEC50 (P. falciparum 3D7 [2]; [3]): 6.85
CN1CCN(c2ccc(Nc3c4ccccc4nc4ccccc34)cc2)CC1 [MMV006172]	6.85	97	pEC50 (P. falciparum 3D7 [2]; source GNF (GNF-Pf id)): 7.25; pEC50 (P. falciparum 3D7 [2]; source GSK (TCMDC id)): 6.19
CCCn1c(=N)c(C(=O)NC2CCCCC2)cc2c(=O)n3cccc(C)c3nc21 [MMV008829]	5.96	96	pEC50 (P. falciparum 3D7 [2]; source GNF): 6.34
Cc1cc(NCCN2CCCCC2)c2ccc3ccccc3c2n1 [MMV006203]	6.52	99	pEC50 (P. falciparum 3D7 [2]; source GNF (GNF-Pf id)): 7.36
COc1ccc2nc(N)nc(C)c2c1 [MMV665897]	–	63	pEC50 (P. falciparum 3D7 [2]; source GSK (TCMDC ids)): 6.03
OC1CCCCC1C1(NC(=S)Nc2ccccc2)CCCCC1 (centres unmarked) [MMV665980]	–	59	pEC50 (P. falciparum 3D7 [2]; source GNF (GNF-Pf ids)): 6.68
COc1ccc(N2CCN(C(CNC(=O)CC(C)(C)C)c3ccc4c(c3)OCO4)CC2)cc1 (centres unmarked) [MMV665908]	–	95	pEC50 (P. falciparum 3D7 [2]; source StJude (SJ ids)): 5.37
Oc1ccc(Br)cc1CN1CCN(Cc2cccc(F)c2)CC1 [MMV000356]	5.99	–	pEC50 (P. falciparum 3D7 [2]; [4]): 5.85
CCc1ccc(Nc2cc(C)c3ccc(O)cc3n2)cc1 [MMV000570]	6.71	98	pEC50 (P. falciparum 3D7 [2]; source StJude (SJ id)): 6.14
CCOC(=O)C1=C(c2ccccc2)N=c2sc(=Cc3cc(C)n(-c4ccc(F)cc4)c3C)c(=O)n2C1c1cccc(OC)c1OC (centres unmarked) [MMV666601]	6.81	94	pEC50 (P. falciparum 3D7 [2]; source GNF (GNF-Pf id)): 5.63
Oc1ccccc1CN1CCC2(CCCN(Cc3ccccc3F)C2)C1 (centres unmarked) [MMV666116]	6.26	98	pEC50 (P. falciparum 3D7 [2]; [4]): 6.17
Cc1cc(C=C2SC(=Nc3ccccc3)N(C3CCCC3)C2=O)c(C)n1-c1ccc(Cl)cc1 [MMV666688]	6.58	97	pEC50 (P. falciparum 3D7 [2]; source GSK (TCMDC id)): 6.06
Cc1cc(Nc2ccc(Cl)cc2)n2nc(C(F)(F)F)nc2n1 [MMV011256]	6.67	–	pEC50 (P. falciparum 3D7 [2]; source GSK (TCMDC id)): 6.93
COc1cccc(Nc2nc(NCCO)c3ccccc3n2)c1 [MMV011944]	6.07	–	pEC50 (P. falciparum 3D7 [2]; source GNF): 6.94; pEC50 (P. falciparum 3D7 [2]; source GSK): 6.82
Cc1cc(Nc2ccc(C)c(Cl)c2)n2nc(C(F)(F)F)nc2n1 [MMV665874]	8.17	98	pEC50 (P. falciparum 3D7 [2]; source GSK (TCMDC id)): 7.80
O=C(NC1CCN(Cc2ccccc2)CC1)c1cc(-c2ccncc2)nc2ccc(Cl)cc12 [MMV020275]	5.99	92	pEC50 (P. falciparum 3D7 [2]; [4]): 6.04
CCn1c2c(c(=N)c3c1CCC3)CCCC2 [MMV000340]	6.16	77	pEC50 (P. falciparum 3D7 [2]; [3]): 5.51
Cc1ccc(S(=O)(=O)c2c(COC(=O)c3cccc(C)c3)c(-c3ccccc3)nn2C)cc1 [MMV665936]	–	95	pEC50 (P. falciparum 3D7 [2]; source GNF (GNF-Pf ids)): 5.08
COc1ccc(C(O)(CCC(C)C)C(CN2CCOCC2)c2ccc(Cl)cc2)cc1 (centres unmarked) [MMV000617]	–	97	pEC50 (P. falciparum 3D7 [2]; source StJude (SJ ids)): 5.34
CN(C)CCCNCc1ccc(-c2ccc(F)c(Cl)c2)o1 [MMV020505]	6.06	96	pEC50 (P. falciparum 3D7 [2]; source GSK (TCMDC ids)): 6.10
CC1CC2=C(CC1CNCCCN(C)C)C(C)(C)CCC2 (centres unmarked) [MMV665830]	6.00	98	pEC50 (P. falciparum 3D7 [2]; [3]): 6.60
c1ccc(C2=Nc3ccccc3N=C(c3ccccc3)c3ccccc32)cc1 [MMV007113]	6.18	99	pEC50 (P. falciparum 3D7 [2]; [3]): 6.17
